Assay results published in ChEMBL document CHEMBL4316622, “Discovery of novel pyrazole derivatives as potential anticancer agents in MCL” (Bioorg Med Chem Lett, 2019).

Tests used:
[1] = tested on: Rec1; assay: Antiproliferative activity against human Rec1 cells assessed as inhibition of cell proliferation incubated for 72 hrs by Cell-titer-Glo luminescent cell viability assay; format: functional, cell-based; details: Rec1, 72 h
[2] = tested on: JeKo-1; assay: Antiproliferative activity against human JeKo1 cells assessed as inhibition of cell proliferation incubated for 72 hrs by Cell-titer-Glo luminescent cell viability assay; format: functional, cell-based; details: JeKo-1, 72 h
[3] = tested on: Maver1; assay: Antiproliferative activity against human Maver1 cells assessed as inhibition of cell proliferation incubated for 72 hrs by Cell-titer-Glo luminescent cell viability assay; format: functional, cell-based; details: Maver1, 72 h
[4] = tested on: Z-138; assay: Antiproliferative activity against human Z138 cells assessed as inhibition of cell proliferation incubated for 72 hrs by Cell-titer-Glo luminescent cell viability assay; format: functional, cell-based; details: Z-138, 72 h
[5] = Antiproliferative activity against human Mino cells assessed as inhibition of cell proliferation incubated for 72 hrs by Cell-titer-Glo luminescent cell viability assay; format: functional, cell-based
[6] = Half life in human liver microsomes further incubated of 5 to 60 mins in presence of NADPH regenerating system by LC/MS analysis
[7] = in vitro; details: human
Description: Intrinsic clearance in human liver microsomes further incubated of 5 to 60 mins in presence of NADPH regenerating system by LC/MS analysis

[8] = in vitro; details: human; remark: listed apart in the source
Description: Hepatic clearance in human liver microsomes further incubated of 5 to 60 mins in presence of NADPH regenerating system by LC/MS analysis

[9] = Stability in human liver microsomes assessed as compound remaining incubated of 60 mins in presence of NADPH regenerating system by LC/MS analysis; details: liver microsomes

half-life ([6]; liver microsomes) [min] | remaining at 1 h [9] [%] | microsomal CLint ([7]; liver microsomes) [µL/min/mg] | CLint scaled ([8]; liver microsomes) [mL/min/kg] | Structure (SMILES) | IC50 [1] [µM] | IC50 [2] [µM] | IC50 [3] [µM] | IC50 [4] [µM] | IC50 [5] [µM] | half-life ([6]; microsomes) [min] | microsomal CLint ([7]; microsomes) [µL/min/mg] | CLint scaled ([8]; microsomes) [mL/min/kg]
– | – | – | – | C/C=C/C(=O)N1CCCC(n2nc(-c3ccc(Oc4ccccc4)cc3)cc2C(=O)O)C1 (racemic) | 31 | > 60 | > 60 | > 60 | > 60 | – | – | –
– | – | – | – | O=C(O)Cc1ccccc1Nc1c(Cl)cccc1Cl [DICLOFENAC] | – | – | – | – | – | 11.5 | 121 | 109
– | – | – | – | CCOC(=O)c1cc(-c2ccc(Oc3ccccc3)cc2)nn1C1CCCN(C(=O)CCl)C1 (racemic) | 0.4 | 0.8 | 1.2 | 1.3 | 1.2 | – | – | –
– | – | – | – | C=CC(=O)N1CCC[C@@H](n2nc(-c3ccc(Oc4ccccc4)cc3)c3c(N)ncnc32)C1 [IBRUTINIB] | 1.1 | 1.5 | 10.4 | 11.3 | 10.1 | – | – | –
– | – | – | – | C/C=C/C(=O)Nc1ccc(Cn2nc(-c3ccc(Oc4ccccc4)cc3)cc2C(=O)OCC)cc1 | 13.1 | 52.5 | > 60 | > 60 | 33.2 | – | – | –
– | – | – | – | C=CC(=O)Nc1ccc(Cn2nc(-c3ccc(Oc4ccccc4)cc3)cc2C(=O)OCC)cc1 | 2.8 | 10.9 | 13.3 | 12.5 | 5.4 | – | – | –
– | – | – | – | C=CC(=O)N1CCCC(n2nc(-c3ccc(Oc4ccccc4)cc3)cc2CO)C1 (racemic) | 5.4 | 11.9 | 30.5 | 14.6 | 15.4 | – | – | –
– | – | – | – | CCOC(=O)c1cc(-c2ccc(Oc3ccccc3)cc2)nn1Cc1cccc(NC(=O)CCl)c1 | 0.4 | 0.4 | 0.5 | 0.4 | 1 | – | – | –
– | – | – | – | C=CC(=O)Nc1ccc(Cn2nc(-c3ccc(Oc4ccccc4)cc3)cc2C(=O)O)cc1 | > 60 | > 60 | > 60 | > 60 | > 60 | – | – | –
– | – | – | – | O=C(CCl)Nc1ccc(Cn2nc(-c3ccc(Oc4ccccc4)cc3)cc2CO)cc1 | 0.4 | 0.4 | 0.4 | 0.4 | 0.4 | – | – | –
– | – | – | – | C/C=C/C(=O)N1CCCC(n2nc(-c3ccc(Oc4ccccc4)cc3)cc2CO)C1 (racemic) | 27.2 | > 60 | > 60 | 51.1 | 45 | – | – | –
– | – | – | – | C/C=C/C(=O)Nc1ccc(Cn2nc(-c3ccc(Oc4ccccc4)cc3)cc2CO)cc1 | 12.2 | > 60 | 48.4 | 54.5 | 40.2 | – | – | –
– | – | – | – | C/C=C/C(=O)Nc1ccc(Cn2nc(-c3ccc(Oc4ccccc4)cc3)cc2C(=O)O)cc1 | 23.6 | > 60 | > 60 | > 60 | 23.1 | – | – | –
10.6 | 1.5 | 131 | 118 | O=C(CCl)Nc1cccc(Cn2nc(-c3ccc(Oc4ccccc4)cc3)cc2CO)c1 | 0.4 | 0.4 | 0.4 | 0.4 | 0.4 | – | – | –
– | – | – | – | C=CC(=O)Nc1cccc(Cn2nc(-c3ccc(Oc4ccccc4)cc3)cc2C(=O)O)c1 | 33.1 | > 60 | 37.4 | 28.5 | 24.3 | – | – | –
